According to patent publication US20260224550A1, “PDE4 DEGRADERS, PHARMACEUTICAL COMPOSITIONS, AND THERAPEUTIC APPLICATIONS” (BioTheryX, Inc., priority 2023, published 2026):

Columns and labels:
TNFα = experiment: Cell-based cytokine inhibition assay (PBMCs, anti-CD3/anti-CD28 stimulated, MSD kit): TNFα; settings: PBMC, anti-CD3/anti-CD28 stimulation, 23 h with compound, relative to DMSO control
Protocol: (§1) Frozen primary blood mononuclear cells (PBMCs) were thawed and washed once with RPMI 1640 media supplemented with 10% fetal bovine serum, 1% penicillin, and 1% streptomycin. An anti-CD28 antibody at […] was added to the media as a co-stimulant. PBMCs were plated at 1×10^6 cells per well in a 96-well U bottom plate, which was pre-coated overnight with an anti-CD3 antibody at 1 μg/mL in PBS (100 μL/well). After the place was incubated for 1 h at 37° C. in a CO2 incubator, DMSO (control) or a compound was added. After the place was incubated for 23 h at 37° C. in a CO2 incubator, the cells were spun down at 1,500 rpm for 5 min. Supernatant media was collected for cytokine analysis using an MSD kit. Inhibitory activities of the compound were determined as a percentage of the DMSO control.

IL-2 = experiment: Cell-based cytokine inhibition assay (PBMCs, anti-CD3/anti-CD28 stimulated, MSD kit): IL-2; settings: PBMC, anti-CD3/anti-CD28 stimulation, 23 h with compound, relative to DMSO control
Protocol: as §1

IL-10 = experiment: Cell-based cytokine inhibition assay (PBMCs, anti-CD3/anti-CD28 stimulated, MSD kit): IL-10; settings: PBMC, anti-CD3/anti-CD28 stimulation, 23 h with compound, relative to DMSO control
Protocol: as §1

IFNγ = experiment: Cell-based cytokine inhibition assay (PBMCs, anti-CD3/anti-CD28 stimulated, MSD kit): IFNγ; settings: PBMC, anti-CD3/anti-CD28 stimulation, 23 h with compound, relative to DMSO control
Protocol: as §1

[1] = test system: PDE4D, in particular, PDE4D short isoform; experiment: Protein degradation assay in A549 cells (western blot): PDE4D; assay type: cell-based; settings: 24 h, same conditions
Protocol: A549 cells were grown in RPMI 1640 media supplemented with 10% fetal bovine serum, streptomycin, and penicillin. The cells were plated in 6-well plates at 300,000 cells/well in the growth media. After overnight incubation, the cells were treated with DMSO (control) or a compound at predetermined concentrations (e.g., 10 nM, 100 nM, 1 μM, 3 μM, or 10 μM) for 24 h at 37° C. under 5% CO2. Whole cell extracts were prepared using an immunoprecipitation (IP) lysis buffer. The cells were washed once in PBS, and the cell pellets were resuspended in the IP lysis buffer and incubated for 15 min on ice. Cells debris was removed by centrifugation and the cleared whole cell lysates were transferred to new tubes for further analysis.
For a western blot analysis, the whole cell protein extracts were separated on 4-12% SDS-polyacrylamide gels, transferred to nitrocellulose, and probed with primary antibodies. Membranes were subsequently washed and probed with IRDYE® secondary antibodies. The signals were detected using an ODYSSEY® Imaging System. The antibodies used in the assay included anti-PDE4B antibody; anti-PDE4D antibodies (top, bottom, and short isoform); β-actin mouse monoclonal antibody; IRDYE® 680RD goat anti-rabbit antibody; and IRDYE® 800CW goat anti-mouse antibody.

IC50 (TNFα) [nM]	IC50 (IL-2) [nM]	IC50 (IL-10) [nM]	IC50 (IFNγ) [nM]	SMILES	degradation of PDE4D (result in words) [1]
0.09	0.09	0.2	0.3	CCOc1cc([C@@H](CS(C)(=O)=O)N2C(=O)c3ccc(N4CCN(CC5CCN(Cc6ccc(Oc7ccc8c(C9CCC(=O)NC9=O)nn(C)c8c7)cc6)CC5)CC4)cc3C2=O)ccc1OC (stereo partly drawn) [Compound B002, 5-(4-((1-(4-((3-(2,6-dioxopiperidin-3-yl)-1-methyl-1H-indazol-6-yl)oxy)benzyl)-piperidin-4-yl)methyl)piperazin-1-yl)-2-((S)-1-(3-ethoxy-4-methoxyphenyl)-2-(methylsulfonyl)-ethyl)isoindoline-1,3-dione]	
0.3	0.2	0.3	0.9	CCOc1cc([C@@H](CS(C)(=O)=O)N2C(=O)c3ccc(N4CCC(C5CCN(Cc6ccc(Oc7ccc8c(C9CCC(=O)NC9=O)nn(C)c8c7)cc6)CC5)CC4)cc3C2=O)ccc1OC (stereo partly drawn) [Compound B001, 5-(1′-(4-((3-(2,6-dioxopiperidin-3-yl)-1-methyl-1H-indazol-6-yl)oxy)benzyl)-[4,4′-bipiperidin]-1-yl)-2-((S)-1-(3-ethoxy-4-methoxyphenyl)-2-(methylsulfonyl)ethyl)-isoindoline-1,3-dione]	
				CCOc1cc([C@@H](CS(C)(=O)=O)N2C(=O)c3cccc(NC(C)=O)c3C2=O)ccc1OC [apremilast]	did not degrade
